According to patent publication US8440837B2, “2-substituted-ethynylthiazole derivatives and uses of same” (H. Lundbeck A/S, priority 2009, dated 2013):

Columns and labels:
mGluR5 = mGluR5 (Homo sapiens, UniProt P41594); assay: [3H] MPEP radioligand filtration binding assay on membrane homogenates; details: 5 nM [3H] MPEP, Cheng-Prusoff from IC50
Protocol: Binding assays were performed as described in [J. A. O'Brien et al. Mol. Pharmacol., 2003, 64, 731-740] with slight modifications. Briefly, after thawing, the membrane homogenates were resuspended in 50 mM Tris-HCl, 0.9% NaCl binding buffer at pH 7.4 to a final assay concentration of 20 μg protein/well for [^3H] […] ([^3H] MPEP) (American Radiolabeled Chemicals, Inc., St. Louis, Mo.) filtration binding. Incubations included 5 nM [^3H] MPEP, membranes and either buffer or varying concentrations of compound. Samples were incubated for 60 min at room temperature with shaking. Non-specific binding was defined with 10 μM MPEP. After incubation, samples were filtered over a GF/C filter (presoaked in 0.25% polyethyleneimine (PEI)) and then washed 4 times using a Tomtec® Harvester 96® Mach III cell harvester (Tomtec, Hamden, Conn.) with 0.5 mL ice-cold 50 mM Tris-HCl (pH 7.4).
IC50 values were derived from the inhibition curve and Ki values were calculated according to the Cheng and Prusoff equation of Ki=IC50/(1+[L]/Kd) described in [Y. Cheng and W. H. Prusoff Biochem. Pharmacol. 1973, 22, 3099-3108] where [L] is the concentration of radioligand and Kd is its dissociation constant at the receptor, derived from the saturation isotherm.

[1] = biological target: human metabotropic glutamate receptor 5 (hmGluR5) (UniProt P31424); assay: Calcium mobilization (FLIPR) assay, positive allosteric modulation of the EC20 glutamate response; type: cell-based; details: HEK 293 cells; for maximum modulation (Emax): EC20 glutamate response; for EC50: increase in EC20 glutamate response
Protocol: (§1) The cDNA for human metabotropic glutamate receptor 5 (hmGluR5) was a generous gift from S. Nakanishi (Kyoto University, Kyoto, Japan). The […] was stably expressed in a HEK 293 cell line and grown in Dulbecco's Modified Eagle Medium (DMEM) (Invitrogen, Carlsbad, Calif.) with supplements (10% bovine calf serum, 4 mM glutamine, 100 units/mL penicillin, 100 μg/mL streptomycin and […]) at 37° C., 5% CO2. Twenty-four hours prior to assay, cells were seeded into 384-well black wall microtiter plates coated with poly-D-lysine. Just prior to assay, media was aspirated and cells dye-loaded (25 μL/well) with 3 μM Fluo-4/0.01% pluronic acid in assay buffer (Hank's Balanced Saline Solution (HBSS)): 150 mM NaCl, 5 mM KCl, 1 mM CaCl2, 1 mM MgCl2, plus 20 mM N-2-Hydroxyethylpiperazine-N′-2-ethanesulfonic acid (HEPES), pH 7.4, 0.1% bovine serum albumin (BSA) and 2.5 mM probenicid) for 1 hour in 5% CO2 at 37° C. After excess dye was discarded, cells were washed in assay buffer and layered with a final volume equal to 30 μL/well. Basal fluorescence is monitored in a fluorometric imaging plate reader (FLIPR) (Molecular Devices, Sunnyvale, Calif.) with an excitation wavelength of 488 nm and an emission range of 500 to 560 nm. Laser excitation energy was adjusted so that basal fluorescence readings were approximately 10,000 relative fluorescent units. Cells were stimulated with an EC20 or an EC80 concentration of glutamate in the presence of a compound to be tested, both diluted in assay buffer, and relative fluorescent units were measured at defined intervals (exposure=0.6 sec) over a 3 min period at room temperature. Basal readings derived from negative controls were subtracted from all samples. Maximum change in fluorescence was calculated for each well. Concentration-response curves derived from the maximum change in fluorescence were analyzed by nonlinear regression (Hill equation).
A silent allosteric modulator (SAM) can be identified by using a combination of both the calcium mobilization assay data and the radioligand binding data. As used herein, the term “silent allosteric modulator” refers to a ligand that binds to an allosteric site of the receptor but has no measurable intrinsic efficacy.

[2] = tested on: working memory processes (cognition); assay: Novel object recognition (NOR) test; type: in vivo, rats
Protocol: Cognition can be assessed by the novel object recognition (NOR). NOR can be used to access cognitive performance with respect to processes of working memory, such as recognition, interpretation and appropriate response. The NOR test was performed using the compound of Example 1 and reference compound in vehicle of 20% β-cyclodextrin (βCD) in dH2O. Example 1 (at 3.0 mg/kg, ip in rats) has activity as measured in the NOR test. Along with Example 1, Examples 2, 12 and 35 (at 1.0 mg/kg, po in rats) have activity as measured in the NOR test.

[3] = biological target: human metabotropic glutamate receptor 5 (hmGluR5); assay: Calcium mobilization (FLIPR) assay, negative allosteric modulation of the EC80 glutamate response; type: cell-based; details: HEK 293 cells, inhibition of EC80 glutamate response
Protocol: as §1
A negative allosteric modulator (NAM) can be identified from these concentration-response curves if a compound produces a concentration dependent inhibition of the EC80 glutamate response.

Sequence of mGluR5 (P41594 21-1212): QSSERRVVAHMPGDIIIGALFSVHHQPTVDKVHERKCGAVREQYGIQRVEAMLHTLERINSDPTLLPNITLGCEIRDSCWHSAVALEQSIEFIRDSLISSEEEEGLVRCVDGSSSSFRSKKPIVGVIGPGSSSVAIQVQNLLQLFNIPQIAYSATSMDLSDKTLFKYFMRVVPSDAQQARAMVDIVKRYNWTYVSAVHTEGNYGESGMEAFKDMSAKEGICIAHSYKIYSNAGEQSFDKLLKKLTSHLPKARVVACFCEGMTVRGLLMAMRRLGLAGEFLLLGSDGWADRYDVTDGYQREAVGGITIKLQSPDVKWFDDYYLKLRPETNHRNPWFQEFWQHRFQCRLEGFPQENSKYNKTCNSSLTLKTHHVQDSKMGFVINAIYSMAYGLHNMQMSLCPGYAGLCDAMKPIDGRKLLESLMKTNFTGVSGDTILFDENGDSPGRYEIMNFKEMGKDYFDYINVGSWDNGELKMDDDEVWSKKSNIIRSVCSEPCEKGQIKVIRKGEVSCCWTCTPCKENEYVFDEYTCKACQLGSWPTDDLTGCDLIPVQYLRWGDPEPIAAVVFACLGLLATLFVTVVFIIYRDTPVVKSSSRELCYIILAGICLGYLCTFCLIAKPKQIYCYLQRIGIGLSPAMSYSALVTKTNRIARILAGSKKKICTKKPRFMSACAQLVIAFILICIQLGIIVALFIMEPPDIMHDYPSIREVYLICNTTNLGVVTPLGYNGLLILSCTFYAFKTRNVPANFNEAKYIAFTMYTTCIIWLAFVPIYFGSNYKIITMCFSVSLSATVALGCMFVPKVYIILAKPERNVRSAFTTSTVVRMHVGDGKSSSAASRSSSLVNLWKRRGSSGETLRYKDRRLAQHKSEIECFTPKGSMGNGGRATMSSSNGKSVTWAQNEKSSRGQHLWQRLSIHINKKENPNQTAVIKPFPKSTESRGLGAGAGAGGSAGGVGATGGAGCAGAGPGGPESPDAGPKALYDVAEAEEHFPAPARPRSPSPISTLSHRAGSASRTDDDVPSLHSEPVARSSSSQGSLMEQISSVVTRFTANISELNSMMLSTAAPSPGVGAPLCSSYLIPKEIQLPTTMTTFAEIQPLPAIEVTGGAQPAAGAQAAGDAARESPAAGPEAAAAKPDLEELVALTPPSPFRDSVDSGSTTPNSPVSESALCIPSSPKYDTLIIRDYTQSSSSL

Ki (mGluR5)	IC50 [3]	Compound	further results
139 nM		O=C(c1cnc(C#Cc2ccccc2)s1)N1CCCCC1 [Example 1, (2-Phenylethynyl-thiazol-5-yl)-piperidin-1-yl-methanone]	maximum modulation (Emax) [1]: 210%; EC50 [1]: 3.6 nM; activity in the NOR test ([2]; 1.0 mg/kg, po in rats, FIG. 2): have activity; activity in the NOR test ([2]; 3.0 mg/kg, ip in rats, FIG. 1): has activity
192 nM		O=C(c1cnc(C#Cc2ccccc2)s1)N1CCC(F)CC1 [Example 2, (4-Fluoro-piperidin-1-yl)-(2-phenylethynyl-thiazol-5-yl)-methanone]	maximum modulation (Emax) [1]: 130%; EC50 [1]: 7.9 nM; activity in the NOR test ([2]; 1.0 mg/kg, po in rats, FIG. 2): have activity
860 nM		O=C(c1cnc(C#Cc2ccccc2)s1)N1CCOCC1 [Example 7, Morpholin-4-yl-(2-phenylethynyl-thiazol-5-yl)-methanone]	
135 nM		CC1CCN(C(=O)c2cnc(C#Cc3ccccc3)s2)CC1 [Example 11, (4-Methyl-piperidin-1-yl)-(2-phenylethynyl-thiazol-5-yl)-methanone]	maximum modulation (Emax) [1]: 150%; EC50 [1]: 3.5 nM
7170 nM		O=C(c1cnc(C#Cc2ccccc2)s1)N1CCC(O)CC1 [Example 12, (4-Hydroxy-piperidin-1-yl)-(2-phenylethynyl-thiazol-5-yl)-methanone]	maximum modulation (Emax) [1]: 170%; EC50 [1]: 280 nM; activity in the NOR test ([2]; 1.0 mg/kg, po in rats, FIG. 2): have activity
300 nM		O=C(c1cnc(C#Cc2cccc(F)c2)s1)N1CCOCC1 [Example 22, [2-(3-Fluoro-phenylethynyl)-thiazol-5-yl]-morpholin-4-yl-methanone]	
		O=C(c1cnc(C#Cc2cccc(Cl)c2)s1)N1CCCCC1 [Example 35, [2-(3-Chloro-phenylethynyl)-thiazol-5-yl]-piperidin-1-yl-methanone]	activity in the NOR test ([2]; 1.0 mg/kg, po in rats, FIG. 2): have activity
	54 nM	O=C(c1cnc(C#Cc2ccccc2)s1)N1CC(F)(F)C1 [Example 114, (3,3-Difluoro-azetidin-1-yl)-(2-phenylethynyl-thiazol-5-yl)-methanone]	
	31 nM	O=C(c1cnc(C#Cc2ccccc2)s1)N1CCC(F)(F)C1 [Example 115, (3,3-Difluoro-pyrrolidin-1-yl)-(2-phenylethynyl-thiazol-5-yl)-methanone]	
	33 nM	COCC1CCCN(C(=O)c2cnc(C#Cc3ccccc3)s2)C1 (centres unmarked) [Example 123, (3-Methoxymethyl-piperidin-1-yl)-(2-phenylethynyl-thiazol-5-yl)-methanone]	
	27 nM	COC[C@@H]1CCCN1C(=O)c1cnc(C#Cc2ccccc2)s1 [Example 168, ((S)-2-Methoxymethyl-pyrrolidin-1-yl)-(2-phenylethynyl-thiazol-5-yl)-methanone]	
	25 nM	CC(C)(C)OC(=O)N1CC2CN(C(=O)c3cnc(C#Cc4ccccc4)s3)CC2C1 (centres unmarked) [Example 171, 5-(2-Phenylethynyl-thiazole-5-carbonyl)-hexahydro-pyrrolo[3,4-c]pyrrole-2-carboxylic acid tert-butyl ester]	
	440 nM	O=C(c1cnc(C#Cc2ccccc2)s1)N1CC2CNCC2C1 (centres unmarked) [Example 173, (Hexahydro-pyrrolo[3,4-c]pyrrol-2-yl)-(2-phenylethynyl-thiazol-5-yl)-methasone]	
	29 nM	O=C(c1cnc(C#Cc2ccccn2)s1)N1CCCCC1 [Example 191, Piperidin-1-yl-(2-pyridin-2-ylethynyl-thiazol-5-yl)-methanone]	
	29 nM	Cc1cccc(C#Cc2ncc(C(=O)N3CCCCC3)s2)n1 [Example 193, [2-(6-Methyl-pyridin-2-ylethynyl)-thiazol-5-yl]-piperidin-1-yl-methasone]	
	20 nM	O=C(c1cnc(C#Cc2ccccn2)s1)N1CCCC1 [Example 198, (2-Pyridin-2-ylethynyl-thiazol-5-yl)-pyrrolidin-1-yl-methanone]	
	700 nM	CC(c1cnc(C#Cc2ccccc2)s1)N1CCCCC1 (centres unmarked) [Example 231, 1-[1-(2-Phenylethynyl-thiazol-5-yl)-ethyl]-piperidine]	
	360 nM	O=C(c1ccccc1)c1cnc(C#Cc2ccccc2)s1 [Example 237, Phenyl-(2-phenylethynyl-thiazol-5-yl)-methanone]	
	140 nM	CC(O)(c1ccccc1)c1cnc(C#Cc2ccccc2)s1 (centres unmarked) [Example 240, 1-Phenyl-1-(2-phenylethynyl-thiazol-5-yl)-ethanol]	

Compound	Ki (mGluR5)	IC50 [3]	further results
O=C(c1cnc(C#Cc2ccccc2)s1)N1C2CCC1CC2 [Example 145, (7-Aza-bicyclo[2.2.1]hept-7-yl)-(2-phenylethynyl-thiazol-5-yl)-methanone]		5 nM	
